Experimental data taken from ChEMBL document CHEMBL4270515, “New pyrazolopyridine analogs: Synthesis, antimicrobial, antiquorum-sensing and antitumor screening” (Eur J Med Chem, 2018).
Converted amounts (≈) assume the structure as drawn.

How the values were obtained:
Aspergillus fumigatus = assay: Antimicrobial activity against Aspergillus fumigatus 293 after 48 hrs by two-fold serial dilution method; format: functional; settings: Af293, 48 h
[1] = Displacement of methyl green from DNA (unknown origin) incubated in dark for 24 hrs
HeLa = assay: Cytotoxicity against human HeLa cells assessed as decrease in cell viability after 48 hrs by MTT assay; format: functional, cell-based
[2] = system: Chromobacterium violaceum; assay: Inhibition of N-acyl-homoserinlactone-related quorum sensing system in Chromobacterium violaceum ATCC 12472 assessed as diameter of violacein pigment inhibition after 48 hrs
HepG2 = assay: Cytotoxicity against human HepG2 cells assessed as decrease in cell viability after 48 hrs by MTT assay; format: functional, cell-based; settings: HepG2, 48 h
Bacillus cereus = assay: Antimicrobial activity against Bacillus cereus UW 85 after 24 hrs by two-fold serial dilution method; format: functional; settings: UW 85, 24 h
Aspergillus flavus = assay: Antimicrobial activity against Aspergillus flavus 3375 after 48 hrs by two-fold serial dilution method; format: functional; settings: Aspergillus flavus, 3375, 48 h
Pseudomonas aeruginosa = assay: Antimicrobial activity against Pseudomonas aeruginosa PAO1 after 24 hrs by two-fold serial dilution method; format: functional; settings: PAO1, 24 h
Staphylococcus aureus = assay: Antimicrobial activity against Staphylococcus aureus ATCC 29213 after 24 hrs by two-fold serial dilution method; format: functional; settings: ATCC 29213, 24 h
Escherichia coli = assay: Antimicrobial activity against Escherichia coli ATCC 12435 after 24 hrs by two-fold serial dilution method; format: functional; settings: ATCC 12435, 24 h
MCF7 = assay: Cytotoxicity against human MCF7 cells assessed as decrease in cell viability after 48 hrs by MTT assay; format: functional, cell-based; settings: MCF7, 48 h
Candida albicans = assay: Antimicrobial activity against Candida albicans after 48 hrs by two-fold serial dilution method; format: functional
Mus musculus [3] = assay: Toxicity in Swiss albino mouse implanted with mouse EAC cells assessed as effect on WBC count at 0.5 mg/mouse administered for 9 days (reference value: 23.96 10^3/mm3); format: organism-based; settings: in vivo, 216 h
Mus musculus [4] = assay: Toxicity in Swiss albino mouse implanted with mouse EAC cells assessed as effect on RBC count at 0.5 mg/mouse administered for 9 days (reference value: 3.69 10^6/mm3); format: organism-based; settings: in vivo, 216 h
Ehrlich [5] = assay: Antitumor activity against mouse EAC cells implanted in Swiss albino mouse assessed as effect on tumor volume at 0.5 mg/mouse administered for 9 days (reference value: 9.85 mL); format: functional
WISH = assay: Cytotoxicity against human WISH cells assessed as decrease in cell viability after 48 hrs by MTT assay; format: cell-based
Mus musculus [6] = assay: Toxicity in Swiss albino mouse implanted with mouse EAC cells assessed as effect on hemoglobin content at 0.5 mg/mouse administered for 9 days (reference value: 8.15 g/dl); format: organism-based; settings: in vivo, 216 h
Ehrlich [7] = assay: Antitumor activity against mouse EAC cells implanted in Swiss albino mouse assessed as mean survival time at 0.5 mg/mouse administered for 9 days (reference value: 14.5 day); format: functional
WI-38 = assay: Cytotoxicity against human W138 cells assessed as decrease in cell viability after 48 hrs by MTT assay; format: cell-based; settings: WI-38, 48 h
Ehrlich [8] = assay: Antitumor activity against mouse EAC cells implanted in Swiss albino mouse assessed as increase in life span at 0.5 mg/mouse administered for 9 days relative to control; format: functional
Ehrlich [9] = assay: Antitumor activity against mouse EAC cells implanted in Swiss albino mouse assessed as effect on viable tumor cell count at 0.5 mg/mouse administered for 9 days by trypan blue staining based method (reference value: 83.20 10^6/ml); format: functional

SMILES | MIC (Aspergillus fumigatus) [µM] | IC50 [1] [µM] | IC50 (HeLa) [µM] | inhibition zone (IZ) [2] [mm] | IC50 (HepG2) [µM] | MIC (Bacillus cereus) [µM] | MIC (Aspergillus flavus) [µM] | MIC (Pseudomonas aeruginosa) [µM] | MIC (Staphylococcus aureus) [µM] | MIC (Escherichia coli) [µM] | IC50 (MCF7) [µM] | MIC (Candida albicans) [µM] | Activity (Mus musculus [3]) [×10³ /mm3] | Activity (Mus musculus [4]) [×10⁶ /mm3] | Activity (Ehrlich [5]) [mL] | IC50 (WISH) [µM] | Activity (Mus musculus [6]) [g/dL] | MST (Ehrlich [7]) [days] | ILS (Ehrlich [8]) [%] | Activity (Ehrlich [9]) [×10⁶ /ml] | further results
Cc1n[nH]c2c1C(c1ccc(N(C)C)cc1)C(C(=O)N/N=C/c1ccc(Cl)cc1)=C(N)N2 (stereo not given) | 2220 (≈ 1000 µg/mL) | 67.8 | 31.7 | < 2 | 39.5 | 556 (≈ 250 µg/mL) | 2220 (≈ 1000 µg/mL) | 556 (≈ 250 µg/mL) | 556 (≈ 250 µg/mL) | 556 (≈ 250 µg/mL) | 25.2 | 1110 (≈ 500 µg/mL) |  |  |  |  |  |  |  |  | 
Cc1n[nH]c2c1C(c1ccc(N(C)C)cc1)C(C(=O)NN)=C(N)N2 (stereo not given) | 1530 (≈ 500 µg/mL) | 68.2 | 51.3 | 5 | 66.4 | 764 (≈ 250 µg/mL) | 1530 (≈ 500 µg/mL) | 764 (≈ 250 µg/mL) | 764 (≈ 250 µg/mL) | 1530 (≈ 500 µg/mL) | 42.6 | 1530 (≈ 500 µg/mL) |  |  |  |  |  |  |  |  | 
Cc1n[nH]c2c1C(c1ccc(N(C)C)cc1)C(C(=O)O)=C(N)N2 (stereo not given) | 399 (≈ 125 µg/mL) | 41.7 | 33.6 | 11 | 39.7 | 99.7 (≈ 31.3 µg/mL) | 399 (≈ 125 µg/mL) | 199 (≈ 62.5 µg/mL) | 99.7 (≈ 31.3 µg/mL) | 199 (≈ 62.5 µg/mL) | 22 | 798 (≈ 250 µg/mL) |  |  |  |  |  |  |  |  | 
Cc1n[nH]c2c1C(c1ccc(N(C)C)cc1)C(C(N)=O)=C(N)N2 (stereo not given) | 3200 (≈ 1000 µg/mL) | 28 | 5.77 | < 2 | 5.28 |  | 6400 (≈ 2000 µg/mL) | 3200 (≈ 1000 µg/mL) |  |  | 4.55 | 6400 (≈ 2000 µg/mL) | 8.2 | 5.94 | 1.35 | 76.4 | 14 | 61 | 238.9 | 21.46 | IC50 (WI-38): 68.5 µM
CC1(C)S[C@@H]2[C@H](NC(=O)[C@H](N)c3ccccc3)C(=O)N2[C@H]1C(=O)O [AMPICILLIN] |  |  |  |  |  | 1430 (≈ 500 µg/mL) |  |  | 716 (≈ 250 µg/mL) | 44.7 (≈ 15.6 µg/mL) |  |  |  |  |  |  |  |  |  |  | 
Cc1n[nH]c2c1C(c1ccc(N(C)C)cc1)C(C(=O)NNC(N)=S)=C(N)N2 (stereo not given) | 1290 (≈ 500 µg/mL) | 36.7 | 6.26 | < 2 | 6.32 | 647 (≈ 250 µg/mL) | 1290 (≈ 500 µg/mL) | 647 (≈ 250 µg/mL) | 647 (≈ 250 µg/mL) | 1290 (≈ 500 µg/mL) | 5.21 | 1290 (≈ 500 µg/mL) | 8.52 | 5.59 | 2.25 | 49 | 13.4 | 46 | 155.5 | 30.94 | IC50 (WI-38): 53.5 µM
Cc1n[nH]c2c1C(c1ccc(N(C)C)cc1)C(C(=O)NNc1cc([N+](=O)[O-])ccc1[N+](=O)[O-])=C(N)N2 (stereo not given) | 1010 (≈ 500 µg/mL) | 34 | 8.52 | 2.5 | 8.68 | 253 (≈ 125 µg/mL) | 1010 (≈ 500 µg/mL) | 507 (≈ 250 µg/mL) | 507 (≈ 250 µg/mL) | 1010 (≈ 500 µg/mL) | 13 | 1010 (≈ 500 µg/mL) | 10.32 | 5.24 | 2.8 | 51.2 | 13.1 | 42 | 133.3 | 34.73 | IC50 (WI-38): 55.4 µM
Cc1n[nH]c2c1C(c1ccc(N(C)C)cc1)C=C(N)N2 (stereo not given) | 3710 (≈ 1000 µg/mL) | 56.4 | 27.4 | < 2 | 20.6 | 3710 (≈ 1000 µg/mL) | 3710 (≈ 1000 µg/mL) | 3710 (≈ 1000 µg/mL) | 3710 (≈ 1000 µg/mL) | 7430 (≈ 2000 µg/mL) | 11.2 | 3710 (≈ 1000 µg/mL) | 12.69 | 4.53 | 4.8 | 21.6 | 10.95 | 31 | 72.2 | 51.17 | IC50 (WI-38): 18.1 µM
COc1cccc2c1C(=O)c1c(O)c3c(c(O)c1C2=O)C[C@@](O)(C(=O)CO)C[C@@H]3O[C@H]1C[C@H](N)[C@H](O)[C@H](C)O1 [DOXORUBICIN] |  | 31.3 |  |  |  |  |  |  |  |  |  |  | 8.96 | 5.32 | 1 | 8.14 | 12.75 | 62 | 244.4 | 16.36 | 
Oc1cc(O)c2c(c1)O[C@H](c1ccc(O)c(O)c1)[C@@H](O)C2 |  |  |  | 2 |  |  |  |  |  |  |  |  |  |  |  |  |  |  |  |  | 
OC(Cn1cncn1)(Cn1cncn1)c1ccc(F)cc1F [FLUCONAZOLE] |  |  |  |  |  |  |  |  |  |  |  | 6530 (≈ 2000 µg/mL) |  |  |  |  |  |  |  |  | 
Cc1n[nH]c2c1C(c1ccc(N(C)C)cc1)C(C(=O)n1ncc(C#N)c1N)=C(N)N2 (stereo not given) | 2480 (≈ 1000 µg/mL) |  | 60.2 | < 2 | 66.3 |  | 2480 (≈ 1000 µg/mL) | 620 (≈ 250 µg/mL) |  |  | 62.7 | 4960 (≈ 2000 µg/mL) |  |  |  |  |  |  |  |  | 
Cc1n[nH]c2c1C(c1ccc(N(C)C)cc1)C(C(=O)N/N=C1/C(=O)Nc3ccccc31)=C(N)N2 (stereo not given) | 2190 (≈ 1000 µg/mL) |  | 52.9 | < 2 | 57.9 | 2190 (≈ 1000 µg/mL) | 2190 (≈ 1000 µg/mL) | 548 (≈ 250 µg/mL) | 2190 (≈ 1000 µg/mL) | 4380 (≈ 2000 µg/mL) | 59.1 | 2190 (≈ 1000 µg/mL) |  |  |  |  |  |  |  |  | 
